Test results reported in PMC11739509, “Transport and inhibition of the sphingosine-1-phosphate exporter SPNS2” (Nature Communications, 2025).

Columns and labels:
[1] = biological target: T1, SPNS2 (Homo sapiens, UniProt Q8IVW8); experiment: S1PR3-coupled S1P export assay in CHO cells; assay type: cell-based; design: untagged wild type SPNS2 overexpressed with SphK1 in CHO-K1 cells
T1 sequence (Q8IVW8 1-549): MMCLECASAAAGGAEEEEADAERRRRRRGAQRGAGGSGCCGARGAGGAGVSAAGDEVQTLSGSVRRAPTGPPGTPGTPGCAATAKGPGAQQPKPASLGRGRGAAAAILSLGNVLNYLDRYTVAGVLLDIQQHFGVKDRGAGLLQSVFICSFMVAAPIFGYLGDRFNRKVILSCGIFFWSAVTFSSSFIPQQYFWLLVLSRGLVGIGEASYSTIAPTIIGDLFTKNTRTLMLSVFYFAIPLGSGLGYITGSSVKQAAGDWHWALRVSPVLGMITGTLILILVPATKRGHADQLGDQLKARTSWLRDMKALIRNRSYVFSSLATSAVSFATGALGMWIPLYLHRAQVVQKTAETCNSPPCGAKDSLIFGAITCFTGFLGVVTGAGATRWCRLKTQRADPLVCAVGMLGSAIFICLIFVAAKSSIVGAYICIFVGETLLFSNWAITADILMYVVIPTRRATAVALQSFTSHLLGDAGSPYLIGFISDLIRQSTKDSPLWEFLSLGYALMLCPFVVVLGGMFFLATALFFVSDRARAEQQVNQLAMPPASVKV

[2] = biological target: T1, SPNS2; experiment: S1PR3-coupled S1P export assay; R200S mutant inactive; assay type: cell-based; design: untagged wild type SPNS2 overexpressed with SphK1 in CHO-K1 cells
[3] = biological target: T1, SPNS2; experiment: cryo-EM structure at […] Å (detergent modeled as dodecyl glucoside; mixture of DDM and S1P not excluded); assay type: binding; design: full-length human SPNS2; residues 1-99, 287-296 and 352-358 not resolved; with nanobody NbD12
[4] = biological target: T2, Biotinylated SPNS2 (full-length, codon-optimized, C-terminal AVI and Flag tag) (Homo sapiens, UniProt Q8IVW8, biotin (AVI tag, BirA co-expressed)); experiment: SPR; Biacore 8K; biotinylated SPNS2 immobilised on SA sensor chip (600 to 800 RU); nanobody series 0 to 1 or 10 uM injected; 20 mM HEPES pH 7.5, 150 mM NaCl, 0.026% DDM, 0.01% fatty acid free BSA; 25 °C; 1:1 interaction model; conditions: both partners purified
T2 construct: SPNS2, full-length codon-optimized, in the in-house baculovirus vector pD-INS3; The species is not repeated in the paragraph on this construct; also called Biotinylated SPNS2 protein; source: Sf9 cells co-infected with SPNS2 and BirA baculovirus, biotin in the medium; purified in DDM or LMNG (Anti-Flag M2 resin, SEC); not shown: AVI, C-terminal, kept

## CCCCCCCCCCc1ccc2nc(NC[C@H]3CCNC3)oc2c1 [33p, 6-decyl-N-[[(3S)-pyrrolidin-3-yl]methyl]-1,3-benzoxazol-2-amine]
[1]
  IC50: 1.9 ± 0.32 µM

## CCCCCCCCCCCCC/C=C/[C@@H](O)[C@@H](N)COP(=O)(O)O [Sphingosine-1-phosphate]
[2]
  S1PR3-coupled S1P export assay; R200S mutant inactive: Validating this assay, the SPNS2 mutation R200S shows no S1P transport activity

## CCCCCCCCCCCCO[C@@H]1O[C@H](CO)[C@@H](O[C@H]2O[C@H](CO)[C@@H](O)[C@H](O)[C@H]2O)[C@H](O)[C@H]1O [n-dodecyl-β-D-maltopyranoside]
[3]
  cryo-EM structure at 3.7 Å (detergent modeled as dodecyl glucoside); mixture of D: the unknown density fits the acyl chain and first glucose of n-dodecyl-β-D-maltopyranoside

B1: Nanobody D12 (NbD12) (VHH)
VHH: QVQLVESGGGLVQAGGSLRLSCAASGRLLSWYDMAWFRQAPGKEREFVAAVTSTGAGTHYVDSVKGRFTISRVNAKNTMYLQMNSLKPEDTAVYYCAAANTRLTALSLRTTTGSWAYWGKGTPVTVSS
notes: Raised by immunising alpacas with SPNS2 and selected by phage display; Subcloned into pBXNP (Addgene 110098) modified to carry a 1x FLAG tag upstream of the 10x His tag; The FLAG tag is used for capture and detection in the co-IP and the immunofluorescence; source: E. coli MC1061 periplasm, purified
[4]
  Kd: 0.00775 µM
